Data: patent US5049380A, “Anti-allergic extract” (Bar-Ilan University, priority 1989, dated 1991)

System: potato 5-lipoxygenase
Assay: Inhibition of potato 5-lipoxygenase, arachidonic acid oxidation, polarographic
Format: biochemical
Settings: caffeic acid 0.33 mM final concentration, AA 313 2 mg.
Description: A reaction mixture containing 1050 units potato 5-lipoxygenase was subjected to the action of the known inhibitor caffeic acid as well as to 2 mg AA 313. Enzyme activity was tested by the ability of a sample of the reaction mixture to oxidize arachidonic acid (concentration of 0.33 mM). […] Enzyme activity was estimated polarographically.

With O=C(O)/C=C/c1ccc(O)c(O)c1 [caffeic acid] the “% Inhibition” value was 64% and the “Enzyme activity (units)” value (control 1050 units) was 375 units.
